{"source": "patent US7722901B2", "about": "“Uses for the extract of a plant of the family Asclepiadaceae” (Cognis IP Management GmbH, priority 2004, dated 2010)", "system": "human hair follicles", "assay": "In vitro culture of human hair follicles (hair growth inhibition)", "assay_type": "cell-based", "settings": "50 follicles from 5 donors", "protocol": "The hair follicles were incubated for 7 days at 37° C. under an atmosphere of air that was enriched with carbon dioxide (5 vol.-%). The length of hair follicles was monitored before being cultured, after 3 days of culture and after 7 days of culture. […] The test was done on hair follicles coming from 3-5 different donors. For each donor 10 follicles were cultured for each set of conditions. The results presented in table 2 are the cumulated results of all hair follicles.", "key": {"[1]": {"settings": "with IGF-1 (30 ng/ml), 0.001 % P/v"}}}
{"smiles": "C=C[C@@]1(C)CC(=O)[C@]2(O)[C@@]3(C)[C@@H](O)CCC(C)(C)[C@@H]3[C@H](O)[C@H](OC(C)=O)[C@@]2(C)O1", "note": "[Forskolin]", "values": [{"measurement": "increase in hair growth Day 3/Day 0", "setting": "[1]", "value": "+9%"}, {"measurement": "increase in hair growth Day 7/Day 0", "setting": "[1]", "value": "+17%"}, {"measurement": "increase in hair growth Day 3/Day 0", "setting": "without IGF-1, 0.001 % P/v", "value": "+8%"}, {"measurement": "increase in hair growth Day 7/Day 0", "setting": "without IGF-1, 0.001 % P/v", "value": "+15%"}]}
